Measured values published in patent US11986540B2, “Compositions including pafolacianine for the identification of malignant lesions” (ON TARGET LABORATORIES, LLC., priority 2022, dated 2024).
Like-named read-outs stand apart in the source and are kept apart here.

Tests used:
plasma protein = assay: Plasma protein binding, equilibrium dialysis, human plasma; format: in vitro ADME; details: human plasma, 5 μM
Procedure: (§1) The plasma protein binding of pafolacianine was studied in vitro in fresh human, Sprague Dawley rat, and Beagle dog plasma using equilibrium dialysis. Pafolacianine was introduced into plasma samples, in duplicate, resulting in a final concentration of 5 μM. The mean (±SD) percentage of plasma protein bound pafolacianine was 99.1±0.1%, 98.6±0.1%, and 93.7±1.5% for rat, dog and human, respectively. Pafolacianine was highly bound to plasma protein in all species examined.

[1] = as above; format: in vitro ADME; details: human, plasma
Procedure: as §1

[2] = Repeat once-weekly IV dose toxicokinetics in dogs; format: in vivo; details: for half-life / AUC(0-inf) / AUC(0-t) / C0 / clearance / Vd: dog, in vivo; for Vd: read-out: Vss
Procedure: Overall, drug concentrations increased with ascending dose, noting that the mean profiles at the two highest dose levels were overlapping. Systemic exposure (AUClast) to pafolacianine was approximately dose-proportional over the range of doses administered (0.9 to 13.9 mg/kg) and within the observed variability (Table 5). […] On both Day 0 and Day 13, CL was slow (relative to hepatic blood flow) and Vss was moderate. Mean T1/2 ranged from approximately 13 to 18 hours.

[3] = female, iv, 0.9 mg/kg, dogs F, 0.9 mg/kg once-weekly IV, Day 0
[4] = female, iv, 0.9 mg/kg, dogs F, 0.9 mg/kg once-weekly IV, Day 13
[5] = female, iv, 9.3 mg/kg, dogs F, 9.3 mg/kg once-weekly IV, Day 0
[6] = female, iv, 9.3 mg/kg, dogs F, 9.3 mg/kg once-weekly IV, Day 13
[7] = female, iv, 13.9 mg/kg, dogs F, 13.9 mg/kg once-weekly IV, Day 0
[8] = female, iv, 13.9 mg/kg, dogs F, 13.9 mg/kg once-weekly IV, Day 13
[9] = male, iv, 0.9 mg/kg, dogs M, 0.9 mg/kg once-weekly IV, Day 0
[10] = male, iv, 0.9 mg/kg, dogs M, 0.9 mg/kg once-weekly IV, Day 13
[11] = male, iv, 9.3 mg/kg, dogs M, 9.3 mg/kg once-weekly IV, Day 0
[12] = male, iv, 9.3 mg/kg, dogs M, 9.3 mg/kg once-weekly IV, Day 13
[13] = male, iv, 13.9 mg/kg, dogs M, 13.9 mg/kg once-weekly IV, Day 0
[14] = male, iv, 13.9 mg/kg, dogs M, 13.9 mg/kg once-weekly IV, Day 13

Q: For `CC1(C)C(=CC=C2CCCC(C=CC3=[N+](CCCCS(=O)(=O)[O-])c4ccc(S(=O)(=O)O)cc4C3(C)C)=C2Oc2ccc(CC(NC(=O)c3ccc(NCc4cnc5nc(N)[nH]c(=O)c5n4)cc3)C(=O)O)cc2)N(CCCCS(=O)(=O)O)c2ccc(S(=O)(=O)O)cc21` (stereo not shown) [pafolacianine], which “mean (±SD) percentage of plasma protein bound” value (plasma protein) is on record?
A: 93.7±1.5%

Q: And the fraction unbound at 5 μM [1]?
A: 0.063

Q: What about the half-life ([2]; both sexes, intravenous, dogs, all doses and days, read-out: Mean T1/2 range) of the same compound?
A: 13 to 18 h

Q: And the “DN AUClast” value ([2]; dogs F, 0.9 mg/kg once-weekly IV, Day 0)?
A: 9.34 (μg · h/ml) (mg/kg)

Q: What about the “DN AUClast” value ([2]; dogs F, 0.9 mg/kg once-weekly IV, Day 13) of the same compound?
A: 7.36 (μg · h/ml) (mg/kg)

Q: What about the “DN AUClast” value ([2]; dogs F, 9.3 mg/kg once-weekly IV, Day 0) of the same compound?
A: 5.46 (μg · h/ml) (mg/kg)

Q: And the “DN AUClast” value ([2]; dogs F, 9.3 mg/kg once-weekly IV, Day 13)?
A: 6.21 (μg · h/ml) (mg/kg)

Q: And the “DN AUClast” value ([2]; dogs F, 13.9 mg/kg once-weekly IV, Day 0)?
A: 5.74 (μg · h/ml) (mg/kg)

Q: What about the “DN AUClast” value ([2]; dogs F, 13.9 mg/kg once-weekly IV, Day 13) of the same compound?
A: 6.81 (μg · h/ml) (mg/kg)

Q: And the “DN AUClast” value ([2]; dogs M, 0.9 mg/kg once-weekly IV, Day 0)?
A: 5.27 (μg · h/ml) (mg/kg)

Q: And the “DN AUClast” value ([2]; dogs M, 0.9 mg/kg once-weekly IV, Day 13)?
A: 5.64 (μg · h/ml) (mg/kg)

Q: And the “DN AUClast” value ([2]; dogs M, 9.3 mg/kg once-weekly IV, Day 0)?
A: 6.24 (μg · h/ml) (mg/kg)

Q: And the “DN AUClast” value ([2]; dogs M, 9.3 mg/kg once-weekly IV, Day 13)?
A: 7.03 (μg · h/ml) (mg/kg)

Q: What about the “DN AUClast” value ([2]; dogs M, 13.9 mg/kg once-weekly IV, Day 0) of the same compound?
A: 5.65 (μg · h/ml) (mg/kg)

Q: What about the “DN AUClast” value ([2]; dogs M, 13.9 mg/kg once-weekly IV, Day 13) of the same compound?
A: 6.18 (μg · h/ml) (mg/kg)

Q: What about the “accumulation or changes in TK after repeated dosing” value ([2]; dogs, once-weekly dosing for 3 weeks) of the same compound?
A: no accumulation or changes in TK were evident

Q: And the AUC(0-inf) [2, 3]?
A: 10500 ng·h/mL

Q: What about the AUC(0-t) [2, 3] of the same compound?
A: 8400 ng·h/mL

Q: What about the C0 [2, 3] of the same compound?
A: 4.75 µg/mL

Q: What about the clearance [2, 3] of the same compound?
A: 1.59 mL/min/kg

Q: And the half-life ([2]; female, iv, 0.9 mg/kg, dogs F, 0.9 mg/kg once-weekly IV, Day 0, read-out: T1/2 (converted))?
A: 15 h

Q: What about the Vd [2, 3] of the same compound?
A: 1.47 L/kg

Q: What about the AUC(0-inf) [2, 4] of the same compound?
A: 8420 ng·h/mL

Q: What about the AUC(0-t) [2, 4] of the same compound?
A: 6630 ng·h/mL

Q: What about the C0 [2, 4] of the same compound?
A: 8.92 µg/mL

Q: What about the clearance [2, 4] of the same compound?
A: 1.8 mL/min/kg

Q: And the half-life ([2]; female, iv, 0.9 mg/kg, dogs F, 0.9 mg/kg once-weekly IV, Day 13, read-out: T1/2 (converted))?
A: 13.1 h

Q: What about the Vd [2, 4] of the same compound?
A: 1.49 L/kg

Q: What about the AUC(0-inf) [2, 5] of the same compound?
A: 69300 ng·h/mL

Q: And the AUC(0-t) [2, 5]?
A: 50800 ng·h/mL

Q: And the C0 [2, 5]?
A: 54.9 µg/mL

Q: And the clearance [2, 5]?
A: 2.35 mL/min/kg

Q: What about the half-life ([2]; female, iv, 9.3 mg/kg, dogs F, 9.3 mg/kg once-weekly IV, Day 0, read-out: T1/2 (converted)) of the same compound?
A: 15.2 h

Q: And the Vd [2, 5]?
A: 2.38 L/kg

Q: And the AUC(0-inf) [2, 6]?
A: 76600 ng·h/mL

Q: What about the AUC(0-t) [2, 6] of the same compound?
A: 57700 ng·h/mL

Q: And the C0 [2, 6]?
A: 67.8 µg/mL

Q: And the clearance [2, 6]?
A: 2.11 mL/min/kg

Q: What about the half-life ([2]; female, iv, 9.3 mg/kg, dogs F, 9.3 mg/kg once-weekly IV, Day 13, read-out: T1/2 (converted)) of the same compound?
A: 14.3 h

Q: And the Vd [2, 6]?
A: 1.94 L/kg

Q: What about the AUC(0-inf) [2, 7] of the same compound?
A: 109000 ng·h/mL

Q: What about the AUC(0-t) [2, 7] of the same compound?
A: 79800 ng·h/mL

Q: And the C0 [2, 7]?
A: 79.6 µg/mL

Q: And the clearance [2, 7]?
A: 2.15 mL/min/kg

Q: And the half-life ([2]; female, iv, 13.9 mg/kg, dogs F, 13.9 mg/kg once-weekly IV, Day 0, read-out: T1/2 (converted))?
A: 15.3 h

Q: And the Vd [2, 7]?
A: 2.2 L/kg

Q: What about the AUC(0-inf) [2, 8] of the same compound?
A: 129000 ng·h/mL

Q: What about the AUC(0-t) [2, 8] of the same compound?
A: 94700 ng·h/mL

Q: What about the C0 [2, 8] of the same compound?
A: 104 µg/mL

Q: What about the clearance [2, 8] of the same compound?
A: 1.81 mL/min/kg

Q: What about the half-life ([2]; female, iv, 13.9 mg/kg, dogs F, 13.9 mg/kg once-weekly IV, Day 13, read-out: T1/2 (converted)) of the same compound?
A: 15.3 h

Q: And the Vd [2, 8]?
A: 1.83 L/kg

Q: And the AUC(0-inf) [2, 9]?
A: 6400 ng·h/mL

Q: And the AUC(0-t) [2, 9]?
A: 4740 ng·h/mL

Q: What about the C0 [2, 9] of the same compound?
A: 4.66 µg/mL

Q: What about the clearance [2, 9] of the same compound?
A: 2.39 mL/min/kg

Q: What about the half-life ([2]; male, iv, 0.9 mg/kg, dogs M, 0.9 mg/kg once-weekly IV, Day 0, read-out: T1/2 (converted)) of the same compound?
A: 14.8 h

Q: What about the Vd [2, 9] of the same compound?
A: 2.31 L/kg

Q: What about the AUC(0-inf) [2, 10] of the same compound?
A: 7360 ng·h/mL

Q: What about the AUC(0-t) [2, 10] of the same compound?
A: 5070 ng·h/mL

Q: And the C0 [2, 10]?
A: 5.73 µg/mL

Q: And the clearance [2, 10]?
A: 2.09 mL/min/kg

Q: What about the half-life ([2]; male, iv, 0.9 mg/kg, dogs M, 0.9 mg/kg once-weekly IV, Day 13, read-out: T1/2 (converted)) of the same compound?
A: 17.6 h

Q: What about the Vd [2, 10] of the same compound?
A: 2.42 L/kg

Q: And the AUC(0-inf) [2, 11]?
A: 81200 ng·h/mL

Q: What about the AUC(0-t) [2, 11] of the same compound?
A: 58000 ng·h/mL

Q: What about the C0 [2, 11] of the same compound?
A: 62.1 µg/mL

Q: And the clearance [2, 11]?
A: 1.92 mL/min/kg

Q: And the half-life ([2]; male, iv, 9.3 mg/kg, dogs M, 9.3 mg/kg once-weekly IV, Day 0, read-out: T1/2 (converted))?
A: 16.4 h

Q: What about the Vd [2, 11] of the same compound?
A: 2.1 L/kg

Q: What about the AUC(0-inf) [2, 12] of the same compound?
A: 85100 ng·h/mL

Q: What about the AUC(0-t) [2, 12] of the same compound?
A: 65400 ng·h/mL

Q: What about the C0 [2, 12] of the same compound?
A: 72.6 µg/mL

Q: And the clearance [2, 12]?
A: 1.84 mL/min/kg

Q: And the half-life ([2]; male, iv, 9.3 mg/kg, dogs M, 9.3 mg/kg once-weekly IV, Day 13, read-out: T1/2 (converted))?
A: 13.3 h

Q: What about the Vd [2, 12] of the same compound?
A: 1.6 L/kg

Q: What about the AUC(0-inf) [2, 13] of the same compound?
A: 110000 ng·h/mL

Q: And the AUC(0-t) [2, 13]?
A: 78500 ng·h/mL

Q: And the C0 [2, 13]?
A: 81.8 µg/mL

Q: And the clearance [2, 13]?
A: 2.13 mL/min/kg

Q: What about the half-life ([2]; male, iv, 13.9 mg/kg, dogs M, 13.9 mg/kg once-weekly IV, Day 0, read-out: T1/2 (converted)) of the same compound?
A: 16.2 h

Q: And the Vd [2, 13]?
A: 2.35 L/kg

Q: And the AUC(0-inf) [2, 14]?
A: 117000 ng·h/mL

Q: And the AUC(0-t) [2, 14]?
A: 85900 ng·h/mL

Q: What about the C0 [2, 14] of the same compound?
A: 108 µg/mL

Q: And the clearance [2, 14]?
A: 2 mL/min/kg

Q: And the half-life ([2]; male, iv, 13.9 mg/kg, dogs M, 13.9 mg/kg once-weekly IV, Day 13, read-out: T1/2 (converted))?
A: 15 h

Q: What about the Vd [2, 14] of the same compound?
A: 2.02 L/kg
